The test system of this assay is carrageenin-induced inflammatory nociception in the hind paw. In words: Inflammatory nociception induced by carrageenin (von Frey filament). Particulars: mice, carrageenin 300 μg per paw intraplantar; alpha-humulene 50 mg/kg orally or paracetamol 600 mg/kg orally, 1 h before; evaluated after 3, 4 and 6 hours. The assay is classed as in vivo. The method, then:
The evaluation methodology used in this test is described by Vaz et al. in J. Pharmacol. Exp. Ther. 278:304-312, 1996. Male mice (25-35 g) were systemically (orally) treated with alpha-humulene, 50 mg/kg, administered 1 hour before the experiment. Animals treated with 0.9% saline solution (0.1 ml/10 g) were used as the control. Another group of animals was treated with paracetamol (600 mg/kg, orally, administered 1 h before the treatment), that was used as positive control. For the induction of inflammatory pain, the animals received an intraplantar injection of 0.05 ml of carrageenin (300 μg per paw) at the plantar surface of the right hind paw. […] The nociception was evaluated with a Von Frey filament (0.4 g) after 3, 4 and 6 hours. […] The filament was applied to the right hind paw, complying with the criteria of (1) the application was perpendicular to the plantar surface, with enough pressure to cause the filament to bend, thus obtaining total pressure; (2) the animals were evaluated when the four paws were touching the screen; (3) the paw withdrawal response was considered when the animal removed the paw entirely from the support screen; (4) each animal was stimulated 10 consecutive times, each stimulation lasting 1 second; (5) each paw withdrawal event was considered as 10% of the response, with 10 withdrawal events corresponding to 100% response. […]

As for `CC(=O)Nc1ccc(O)cc1` [paracetamol, reference compound], the “inflammatory nociception (paw withdrawal response to 0.4 g von Frey filament)” value is “reduced the inflammatory nociception”.

The values are drawn from patent US20080280996A1, “Use of Carophyllenes in the Manufacture of Medicaments and Treatment of Bodily Conditions of Inflammation and Inflammatory Pain” (priority 2004, published 2008).
